The target in the assay is T1, human intracellular domain of KDR (VEGF Receptor-2) (Homo sapiens, UniProt P35968).
T1 construct: A fusion protein containing the intracellular domain (amino acids 793 to 1357) of the KDR and N-terminally tagged to GST; made in house; host or cells: Sf9 insect cells (baculovirus, pDEST20) for GST-KDR-cyt; E. coli BL21 (pGEX-4T-1) for GST-PLCγ
T1 sequence (P35968 794-1356 limits assumed): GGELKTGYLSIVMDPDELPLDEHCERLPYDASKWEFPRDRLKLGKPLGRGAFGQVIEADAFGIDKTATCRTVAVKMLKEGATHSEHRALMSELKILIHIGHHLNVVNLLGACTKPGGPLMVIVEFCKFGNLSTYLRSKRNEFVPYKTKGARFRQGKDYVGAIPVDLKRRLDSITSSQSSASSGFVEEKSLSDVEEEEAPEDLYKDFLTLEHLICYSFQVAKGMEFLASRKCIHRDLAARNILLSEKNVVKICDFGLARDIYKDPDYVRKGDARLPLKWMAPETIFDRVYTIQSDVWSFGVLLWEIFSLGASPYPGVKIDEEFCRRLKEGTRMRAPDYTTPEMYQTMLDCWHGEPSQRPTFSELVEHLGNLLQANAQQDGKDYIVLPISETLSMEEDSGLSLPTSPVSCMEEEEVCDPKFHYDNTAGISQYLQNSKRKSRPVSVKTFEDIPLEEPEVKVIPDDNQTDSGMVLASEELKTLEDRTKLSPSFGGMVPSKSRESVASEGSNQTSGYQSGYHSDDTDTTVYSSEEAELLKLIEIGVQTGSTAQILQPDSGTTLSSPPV
As to the kind of experiment: In vitro KDR kinase assay. It counts as biochemical. The settings on record: IC50 as molar concentration; GST-KDR-cyt, substrate phospholipase Cγ, ATP 100 μM, 30 min room temperature, time-resolved fluorometry. The method in brief:
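Sf9-expressed, constitutively active human KDR intracellular domain, diluted 3000–3500 fold, incubated 30 min at room temperature with 100 μM ATP on phospholipase Cγ-coated wells in TBS pH 7.4 with Mg acetate, compounds up to 10 μM, 0.1% DMSO max. Phosphotyrosine detected by Eu-PY-20 time-resolved fluorescence; IC50 by linear interpolation around 50% inhibition.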
`Cc1nc(CONC(=O)c2ccccc2NCc2ccnc3ccccc23)cs1` [compound 232] had an IC50 of 20 nM.
`O=C(NOCC1CCCC1)c1ccccc1NCc1ccnc2ccccc12` [compound 233]: the IC50 was 10 nM.
`O=C(NOCC1CCOCC1)c1ccccc1NCc1ccnc2ccccc12` [compound 234] had an IC50 of 63.1 nM.
With `COc1ccc(CNc2ccccc2C(=O)NOCc2ccc(C#N)cc2OC)cn1` [compound 235] the figure was 63.1 nM.
With `COc1ccc(CNc2ccccc2C(=O)NOCc2ccccc2)cn1` [compound 236] the figure was 79.4 nM; with `COc1ccc(CNc2ccccc2C(=O)NOCc2ccc(C#N)cc2)cn1` [compound 237], 79.4 nM; with `CC(Nc1ccccc1C(=O)NOCc1ccc(C#N)cc1)c1ccncc1` (stereo not shown) [compound 244], 63.1 nM.
With `CNC(=O)Nc1cc(CNc2ccccc2C(=O)NOCC2CCCCO2)ccn1` (stereo not shown) [compound 245] the figure was 7.94 nM; with `COCC(=O)Nc1cc(CNc2ccccc2C(=O)NOCC2CCCC2)ccn1` [compound 246], 20 nM.
With `N#Cc1ccc(CONC(=O)c2ccccc2NCc2ccc(=O)[nH]c2)cc1` [compound 247], the IC50 is 50.1 nM.

Values taken from US8034811B2, “Hydroxamic acid esters and pharmaceutical use thereof” (Leo Pharma A/S, priority 2003, dated 2011).
